For series [1] the following is noted: mice; doses 10 times more than were needed for antitumour activity; cited from earlier work.
Series [2] in a line: Solid-state stability of crystalline L-lactate forms of compound of formula (1). The class given is physicochemical. To be noted: lactic acid salts of compound of formula (1). An excerpt:
The term ‘stable’ or ‘stability’ as used herein includes chemical stability and solid state (physical) stability. The term ‘chemical stability’ means that the compound can be stored in an isolated form, or in the form of a formulation in which it is provided in admixture with for example, pharmaceutically acceptable carriers, diluents or adjuvants as described herein, under normal storage conditions, with little or no chemical degradation or decomposition’ for example for a period of six months or more, more usually twelve months or more, for example eighteen months or more. ‘Solid-state stability’ means the compound can be stored in an isolated solid form, or the form of a solid formulation in which it is provided in admixture with, for example, pharmaceutically acceptable carriers, diluents or adjuvants as described herein, under normal storage conditions, with little or no solid-state transformation (e.g. hydration, dehydration, solvatisation, desolvatisation, crystallisation, recrystallisation or solid-state phase transition).

The format of series [3] is physicochemical. An excerpt: Samples for X-ray powder diffraction (XRPD) data collection were gently ground by marble mortar and loaded into a crystallographic capillary (from Hampton Research, Quartz or Glass Type 10, 0.4 or 0.7 mm diameter). Diffraction patterns were collected at room temperature using CuKα radiation (λ=1.5418 Å) from a Rigaku rotating anode RU3HR, Osmic blue confocal optics, ¼ c goniometer and a Rigaku HTC image plate detector. 2D Images were collected while spinning φ axis with a detector to crystal distance of 250 mm. Data collection was controlled by CrystalClear software and 2D images were converted to 1D plot (2θ vs. Intensity) by Datasqueeze (intensity averaged over the azimuthal angle 0<χ<360° for 2θ range 3-30° in 0.02° steps). In house program AstexXRP was used for manipulation and visualisation of 1D XRPD patterns.
It is nominally a tri-hydrate because there are 3 crystal water positions in the asymmetric unit, but they are not 100% occupied at room temperature and laboratory humidity. A saturated solution of form FL1 in methanol:water 9:1 was prepared at room temperature. Slow precipitation with approximately 4 volumes of acetone gave form FL2 which is stable in air.
A saturated solution of form FL1 in THF was prepared at room temperature. Slow precipitation with approximately 4 volumes of heptane gave form FL3.

The next series deals with HCT116 cell line. Nature of the series: Anti-proliferative activity, Alamar Blue assay. The class given is cell-based. To be noted: Homo sapiens, HCT-116, 72 h, read-out: IC50 against the HCT116 cell line. The protocol:
The anti-proliferative activities of compounds for use in the combinations of the invention can be determined by measuring the ability of the compounds to inhibition of cell growth in a number of cell lines such as the human colon cancer cell line HCT116. […] The method is based on the ability of viable cells to reduce resazurin to its fluorescent product resorufin. […] The number of viable cells is determined by Alamar Blue assay as before. Cell lines can be obtained from the ECACC (European Collection of cell Cultures).

A further series concerns PKA. To be noted: data published 2002; read-out: IC50, inhibition of PKA activity; cited from earlier work.
A further series has as its system OVCAR-3 tumour cells. To be noted: OVCAR-3 tumour cells in which PKB is amplified; concentrations of 50 and 100 microM; cited from earlier work.
Another series has as its system PKG. The conditions noted are these: data published 2002; read-out: IC50, inhibition of PKG activity; cited from earlier work.
Another series relates to PKC. To be noted: data published 2002; read-out: IC50, inhibition of PKC activity; cited from earlier work.
The target of series [4] is T1, Human Hsp90α N-terminal domain (Homo sapiens, UniProt P07900).
T1 construct: purification of the Human Hsp90α N-terminal domain were performed according to published methods; made in house
Description: Isothermal titration calorimetry (ITC) binding to Hsp90. To be noted: pH 7.4. As to the method: The ability of the compounds for use in the combinations of the invention to bind to human Hsp90 proteins was determined using isothermal titration calorimetry.
Isothermal titration calorimetry (ITC) experiments were performed with a VP-ITC titration calorimeter (Microcal Inc., Northampton, Mass., USA). […] All solutions were filtered and degassed prior to a titration being carried out. The enthalpy change resulting from each injection of ligand was obtained through integration of the calorimetric signal. Data were analysed using Origin 7.0 (Microcal Software Inc., Northampton, Mass.). Heats of dilution were estimated using the final injections of each individual titration and subtracted before data fitting. Different ITC experimental formats were employed in order to obtain compound dissociation constants (Kd's) over a wide range of affinities. […] In this type of experiment the stoichiometry parameter (N) was locked at 1 for data fitting.
(In general: In ITC the heat of successive injections is recorded.)

The conditions of series [5]: antitumour agent; cited from earlier work.
Series [6] has as its system P-glycoprotein-overexpressing subline of leukemic cell line CCRF-CEM. The conditions noted are these: P-glycoprotein-overexpressing subline of CCRF-CEM (Chou et al. 1998); cited from earlier work.
For series [7], the system named is Acute Promyelocytic Leukemia (APL). To be noted: cited from earlier work.
Series [8] is described as follows: Hygroscopicity and rate of solubility of salt forms of compound of formula (1). In kind it is physicochemical.
The conditions of series [9]: clinical studies; cited from earlier work.

Here are results for 13 compounds from patent US8916552B2, “Pharmaceutical combinations” (Astex Therapeutics Limited, priority 2006, dated 2014).

Where a name gives a salt, the structure may show the parent alone. Read-outs that look alike come from different tables or passages of the source.

For `CCOC(=O)c1ccc2[nH]c3c(OC)c4[nH]c5ccc(C(=O)OCC)cc5c4cc3c2c1` [SR-13668], in series [1], the “adverse effects in vivo” value is listed as “no adverse effects”.

On to `CC(C)c1cc(C(=O)N2Cc3ccc(CN4CCN(C)CC4)cc3C2)c(O)cc1O` [FL3, (2,4-dihydroxy-5-isopropyl-phenyl)-[5-(4-methyl-piperazin-1-ylmethyl)-1,3-dihydro-isoindol-2-yl]-methanoneL-lactate], for which, in series [2], the “stability of crystalline form” value was “unstable”. Also, the “stability of crystal form in air” value in [3] (2 days) was “transforms in air into form FL1”.

The term IC50 denotes the point on the concentration scale where inhibition reaches its midpoint. On to `CC(C)c1cc(C(=O)N2Cc3ccccc3C2)c(O)cc1O` [Example 5, (1,3-Dihydro-isoindol-2-yl)-(2,4-dihydroxy-5-isopropyl-phenyl)-methanone], for which the IC50 with HCT116 cell line was below 1 µM.

On to `CC(C)c1cc(C(=O)N2Cc3ccc(CN4CCN(C)CC4)cc3C2)c(O)cc1O` [FL2, (2,4-dihydroxy-5-isopropyl-phenyl)-[5-(4-methyl-piperazin-1-ylmethyl)-1,3-dihydro-isoindol-2-yl]-methanoneL-lactate], for which, in series [2], the “stability of crystalline form” value is recorded as “stable”. Also, the “stability of crystal form in air” value in series [3] was “stable in air”.

Consider `O=S(=O)(NCCNCC=C(c1ccccc1)c1ccccc1)c1cccc2cnccc12` [NL-71-101], for which the results for the 50% inhibitory concentration (IC50) with PKA, in the series on PKG and with PKC were 9 µM, 36 µM and 104 µM, respectively. Moreover, the induction of apoptosis entry in the series on OVCAR-3 tumour cells was “induced apoptosis”.

By Kd is commonly meant the free concentration of one partner at which half of the binding sites on the other are occupied at equilibrium, for simple one-to-one binding. In the case of `CC(C)c1cc(C(=O)N2Cc3ccc(CN4CCN(C)CC4)cc3C2)c(O)cc1O` [Example 55, (2,4-dihydroxy-5-isopropyl-phenyl)-[5-(4-methyl-piperazin-1-ylmethyl)-1,3-dihydro-isoindol-2-yl]-methanone], the Kd in series [4] is below 0.1 µM.

In the case of `CCN[C@H]1CO[C@@H](O[C@H]2[C@H](O[C@H]3C#C/C=C\C#C[C@]4(O)CC(=O)C(NC(=O)OC)=C3/C4=C\CSSSC)O[C@H](C)[C@@H](NO[C@H]3C[C@H](O)[C@H](SC(=O)c4c(C)c(I)c(O[C@@H]5O[C@@H](C)[C@H](O)[C@@H](OC)[C@H]5O)c(OC)c4OC)[C@@H](C)O3)[C@@H]2O)C[C@@H]1OC` [Calicheamicin], the “potency relative to adriamycin” value in series [5] was “over 1,000 times”.

Consider `C/C1=C/C[C@@H](/C(C)=C/c2csc(C)n2)OC(=O)C[C@H](O)C(C)(C)C(=O)[C@H](C)[C@@H](O)[C@@H](C)CCC1` [desoxyepothilone B], for which the IC50 in series [6] was 0.017 µM.

On to `CC1=C(/C=C/C(C)=C/C=C/C(C)=C/C(=O)O)C(C)(C)CCC1` [Tretinoin, all-trans retinoic acid], for which, in series [7], the “remissions induced in APL patients” value was 64-100%.

In the case of `CC(C)c1cc(C(=O)N2Cc3ccc(C(=O)N4CCNCC4)cc3C2)c(O)cc1O` [Example 54, (2,4-dihydroxy-5-isopropyl-phenyl)-[5-(piperazine-1-carbonyl)-1,3-dihydro-isoindol-2-yl]-methanone hydrochloride], in the series on HCT116 cell line, the half-inhibitory concentration (IC50) was below 1 µM.

On to `CC(C)c1cc(C(=O)N2Cc3ccc(CN4CCN(C)CC4)cc3C2)c(O)cc1O` [(2,4-dihydroxy-5-isopropyl-phenyl)-[5-(4-methyl-piperazin-1-ylmethyl)-1,3-dihydro-isoindol-2-yl]-methanone L-lactate salt], for which, in series [8], the hygroscopicity result is on record as “non-hygroscopic”. Also, the rate of solubility result in [8] (compared with free base and other salts tested (hydrochloric acid, sulphuric acid)) was “better rate of solubility than the free base and other salts tested”.

`CC(C)c1cc(C(=O)N2Cc3ccc(CN4CCN(C)CC4)cc3C2)c(O)cc1O` [FL1, (2,4-dihydroxy-5-isopropyl-phenyl)-[5-(4-methyl-piperazin-1-ylmethyl)-1,3-dihydro-isoindol-2-yl]-methanoneL-lactate]: in series [2], the “stability of crystalline form” value is “stable”. In [3], the “stability of crystal form at 40° C. and 75% RH” value is “stable in air and at 40 °C and 75% RH for at least one month”; the “stability of crystal form in air” value is on record as “stable in air”.

In general, half-life refers to the time needed for the level to fall by half in the phase considered. With Perifosine [KRX-0401], the half-life in series [9] is around 100 h.
